According to patent US8268767B2, “Personal wash cleanser comprising defined alkanoyl compounds, defined fatty acyl isethionate surfactant product and skin or hair benefit agent” (priority 2010, dated 2012):

Tested on: skin (patch test sites on the intrascapular area of the back)
Experiment: Patch Test, 14-day cumulative irritation test
Conditions: for Patch test Total irritation score: cleansers diluted to 25% w/w, 14-day cumulative score
Protocol: This was randomized, double-blind study. A sufficient number of subjects were recruited to ensure that 25 subjects completed the study. The 14-day cumulative irritation test was conducted as follows. Patching occurred for 14 consecutive days, except on Sundays. Patches applied on Saturday were left in place until Monday, when freshly prepared patches were applied. The designated patch test sites were approximately 2 cm×2 cm on the intrascapular area of the back. Approximately 0.2 mL of the test product was placed onto a Parke-Davis Readi-Bandage® occlusive patch that measured 2 cm×2 cm. Solutions were made by diluting the cleansers to 25% w/w in distilled water. The patch was then applied to the designated test site. The patches were secured with hypoallergenic tape (Scanpor {Allerderm} as needed). A 0.5% sodium dodecyl sulfate (SDS) solution was used as the control in the test.
Each day following application, the patches were removed, the sites evaluated and identical patches reapplied to the same test sites. All evaluations were made using the following 6-point scoring system: • 0=No evidence of any effect • +=Barely perceptible (minimal, faint, uniform or spotty erythema) numerically equivalent to 0.5 • 1=Mild (pink, uniform erythema covering most of the contact site) • 2=Moderate (pink-red, erythema uniform in the entire contact site) • 3=Marked (bright red erythema with/without petechiae or papules) • 4=Severe (deep red erythema with/without vesiculation or weeping)
If a dermal reaction of 3 or 4 occur with any of the test articles at any point during the study, further patch testing on that subject was terminated at the test site involved, and the attained score was assigned to that site for the subsequent scheduled test days.
Cumulative irritation scores, which were the sum of the numerical irritation grades assigned daily during the 14-day test period, were calculated at the end of the study to compare mildness of the test products. […] The data were statistically analyzed using Tukey-Kramer Comparison, and statistical significance was determined at the 95% confidence level.

[1] = first patch test of Table 1 (0.5% SDS control = 783)
[2] = second patch test of Table 1 (0.5% SDS control = 912)

## CCCCCCCCCCCCOS(=O)(=O)[O-].[Na+] [0.5% SDS Solution, sodium dodecyl sulfate]
[1]
  Total irritation score compared to 0.5% SDS solution: 100%
  Patch test Total irritation score: 783
[2]
  Total irritation score compared to 0.5% SDS solution: 100%
  Patch test Total irritation score: 912
